The compounds below were run against T1, human aquaporin 9 (Homo sapiens, UniProt O43315) (assay: Calcein quenching fluostar assay). Settings: inhibition of human aquaporin 9; Human AQP9 cell line, tetracyclin-induced; 25° C.
T1 construct: expressed in transfected cells; host or cells: Human AQP9 cell line with tetracycline added to the medium
T1 sequence (O43315 1-295): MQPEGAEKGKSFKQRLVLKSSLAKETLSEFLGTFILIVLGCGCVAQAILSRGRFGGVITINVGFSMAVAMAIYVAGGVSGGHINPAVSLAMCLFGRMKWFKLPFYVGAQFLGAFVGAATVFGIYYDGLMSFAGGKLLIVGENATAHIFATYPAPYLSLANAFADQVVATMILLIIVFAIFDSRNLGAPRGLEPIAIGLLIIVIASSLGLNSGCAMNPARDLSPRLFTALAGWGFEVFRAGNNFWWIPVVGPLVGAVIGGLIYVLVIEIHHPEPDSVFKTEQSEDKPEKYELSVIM
Format: cell-based
Experimental: Calcein Quenching Fluostar Assay
A calcein quenching fluostar assay was performed in order to investigate the biological activity of the newly synthesized examples 1 to 57. This type of assay is disclosed in J. Biol. Chem., 2011, 286, 44319-44325 and Am. J. Physiol. Renal Physiol. (2010), 298, F224-230.
1) Two days prior to commencement of the assay, seed 10,000 cells/well of 96 well black clear bottom plate (Greiner Poly-lysin plate). A 1:1 mix of Dulbecco's Modified Eagle's Medium:Nutrient Mixture F-12 (DMEM: F12) was obtained from Gibco. Tetracycline stock of 5 mg/ml in 96% ethanol is used. Medium:DMEM/F12/10% Donor Bovine Serum, Human AQP9 cell line+1:270,000 tetracyclin, mouse AQP9 cell line+1:2,700,000 tetracycline.
2) Day of assay: Flick/slam off the medium and add 50 μl/well of loading solution: 5 ml DMEM/F12/10% Donor Bovine Serum, 25 μl Calcein AM—from freshly dissolved aliquot in 50 μl DMSO (VWR #734-1434), and 100 μl Probenecid.
3) Incubate the well for 90 minutes at 37° C.
4) Perform one wash with 75 μl wash buffer.
5) Add 75 μl of an example compound prepared in wash buffer per well.
Example compounds are prepared in 500 μl U bottom PP plates (NUNC). […] Substance in DMSO are added to row A; 180 μl of wash buffer+1% DMSO are added to rows B-H. 90 μl from row A are transferred and mixed with all other wells (up to row G) to make a 3-fold dilution series.
6) Assay in FLUOstar Optima at 25° C. Settings buffer addition at 135 μl seconds, add 75 μl/well, record time course for 30 seconds, add sucrose buffer 3.6 seconds into recording.
7) Normalization to initial in Excel.
8) Fit to “exponential decay” function in GraphPad Prism 5.0, then arrange half live shrinking values according to wells and fit dose-response curves.

IC50 | Structure (SMILES)
110 nM | CCn1c(SCC(=O)Nc2nnc(-c3ccc(F)cc3)s2)nnc1-c1cccnc1 [Example 30, 2-{[4-Ethyl-5-(pyridin-3-yl)-4H-1,2,4-triazol-3-yl]sulfanyl}-N-[5-(4-fluorophenyl)-1,3,4-thiadiazol-2-yl]acetamide]
99 nM | CCn1c(SCC(=O)Nc2nnc(-c3ccc(F)cc3)s2)nnc1-c1ccncc1 [Example 31, 2-{[4-Ethyl-5-(pyridin-4-yl)-4H-1,2,4-triazol-3-yl]sulfanyl}-N-[5-(4-fluorophenyl)-1,3,4-thiadiazol-2-yl]acetamide]
416 nM | CCCn1c(SCC(=O)Nc2nnc(-c3ccc(OC)cc3)s2)nnc1-c1ccc(F)cc1 [Example 32, 2-{[5-(4-Fluorophenyl)-4-propyl-4H-1,2,4-triazol-3-yl]sulfanyl}-N-[5-(4-methoxyphenyl)-1,3,4-thiadiazol-2-yl]acetamide]
978 nM | COc1ccc(-c2nnc(NC(=O)CSc3nnc(-c4ccc(F)cc4)n3C3CC3)s2)cc1 [Example 33, 2-{[4-Cyclopropyl-5-(4-fluorophenyl)-4H-1,2,4-triazol-3-yl]sulfanyl}-N-[5-(4-methoxyphenyl)-1,3,4-thiadiazol-2-yl]acetamide]
61 nM | CCn1c(SCC(=O)Nc2nnc(-c3ccc(O)cc3)s2)nnc1-c1ccc(F)cc1 [Example 34, 2-{[4-Ethyl-5-(4-fluorophenyl)-4H-1,2,4-triazol-3-yl]sulfanyl}-N-[5(4-hydroxyphenyl)-1,3,4-thiadiazol-2-yl]acetamide]
301 nM | CCn1c(SC(C)C(=O)Nc2nnc(-c3ccc(OC)cc3)s2)nnc1-c1ccc(F)cc1 (stereo not drawn) [Example 35, 2-{[4-Ethyl-5-(4-fluorophenyl)-4H-1,2,4-triazol-3-yl]sulfanyl}-N-[5(4-methoxyphenyl)-1,3,4-thiadiazol-2-yl]propanamide]
129 nM | CCn1c(SCC(=O)Nc2nnc(-c3ccc(OS(C)(=O)=O)cc3)s2)nnc1-c1ccc(F)cc1 [Example 36, 4-[5-(2-{[4-Ethyl-5-(4-fluorophenyl)-4H-1,2,4-triazol-3-yl]sulfanyl}acetamido)-1,3,4-thiadiazol-2-yl]phenyl methanesulfonate]
82 nM | CCn1c(SCC(=O)Nc2nnc(-c3ccc(OCCOC)cc3)s2)nnc1-c1ccc(F)cc1 [Example 37, 2-{[4-ethyl-5-(4-fluorophenyl)-4H-1,2,4-triazol-3-yl]sulfanyl}-N-{5-[4-(2-methoxyethoxy)phenyl]-1,3,4-thiadiazol-2-yl}acetamide]
190 nM | CCn1c(SCC(=O)Nc2nnc(-c3ccccc3F)s2)nnc1-c1ccc(F)cc1 [Example 38, 2-{[4-ethyl-5-(4-fluorophenyl)-4H-1,2,4-triazol-3-yl]sulfanyl}-N-[5-(2-fluorophenyl)-1,3,4-thiadiazol-2-yl]acetamide]
113 nM | CCn1c(SCC(=O)Nc2nnc(-c3ccc(OC)cc3)s2)nnc1-c1cccc(Cl)c1 [Example 39, 2-{[5-(3-chlorophenyl)-4-ethyl-4H-1,2,4-triazol-3-yl]sulfanyl}-N-[5-(4-methoxyphenyl)-1,3,4-thiadiazol-2-yl]acetamide]
810 nM | CCn1c(SCC(=O)Nc2nnc(-c3ccc(OC)cc3)s2)nnc1-c1ccc(Cl)cc1 [Example 40, 2-{[5-(4-chlorophenyl)-4-ethyl-4H-1,2,4-triazol-3-yl]sulfanyl}-N-[5-(4-methoxyphenyl)-1,3,4-thiadiazol-2-yl]acetamide]
260 nM | CCn1c(SCC(=O)Nc2nnc(-c3ccc(OC)cc3)s2)nnc1-c1ccccn1 [Example 41, 2-{[4-ethyl-5-(pyridin-2-yl)-4H-1,2,4-triazol-3-yl]sulfanyl}-N-[5-(4-methoxyphenyl)-1,3,4-thiadiazol-2-yl]acetamide]
92 nM | CCn1c(SCC(=O)Nc2nnc(-c3ccc(F)cc3)s2)nnc1-c1ccc(Cl)cc1 [Example 43, 2-{[5-(4-chlorophenyl)-4-ethyl-4H-1,2,4-triazol-3-yl]sulfanyl}-N-[5-(4-fluorophenyl)-1,3,4-thiadiazol-2-yl]acetamide]
168 nM | O=C(CSc1nnc(-c2ccc(F)cc2)n1C1CC1)Nc1nnc(-c2ccc(F)cc2)s1 [Example 44, 2-{[4-cyclopropyl-5-(4-fluorophenyl)-4H-1,2,4-triazol-3-yl]sulfanyl}-N-[5-(4-fluorophenyl)-1,3,4-thiadiazol-2-yl]acetamide]
182 nM | CCn1c(SCC(=O)Nc2nnc(-c3ccc(OC)c(F)c3)s2)nnc1-c1ccc(F)cc1 [Example 45, 2-{[4-ethyl-5-(4-fluorophenyl)-4H-1,2,4-triazol-3-yl]sulfanyl}-N-[5-(3-fluoro-4-methoxyphenyl)-1,3,4-thiadiazol-2-yl]acetamide]
385 nM | CCn1c(SCC(=O)Nc2nnc(-c3ccc(F)c(F)c3)s2)nnc1-c1ccc(F)cc1 [Example 46, N-[5-(3,4-difluorophenyl)-1,3,4-thiadiazol-2-yl]-2-{[4-ethyl-5-(4-fluorophenyl)-4H-1,2,4-triazol-3-yl]sulfanyl}acetamide]
114 nM | CCn1c(SCC(=O)Nc2nnc(-c3ccc(C#N)cc3)s2)nnc1-c1ccc(F)cc1 [Example 47, N-[5-(4-cyanophenyl)-1,3,4-thiadiazol-2-yl]-2-{[4-ethyl-5-(4-fluorophenyl)-4H-1,2,4-triazol-3-yl]sulfanyl}acetamide]
117 nM | COC(=O)CCn1c(SCC(=O)Nc2nnc(-c3ccc(OC)cc3)s2)nnc1-c1ccccc1 [Example 48, Methyl 3-{3-[({[5-(4-methoxyphenyl)-1,3,4-thiadiazol-2-yl]carbamoyl}methyl)sulfanyl]-5-phenyl-4H-1,2,4-triazol-4-yl}propanoate]
373 nM | COc1ccc(-c2nnc(NC(=O)CSc3nnc(-c4ccccc4)n3CCN)s2)cc1 [Example 49, 2-{[4-(2-aminoethyl)-5-phenyl-4H-1,2,4-triazol-3-yl]sulfanyl}-N-[5-(4-methoxyphenyl) 1,3,4 thiadiazol-2-yl]acetamide]
200 nM | COc1ccc(-c2nnc(NC(=O)CSc3nnc(-c4ccccc4)n3CC(N)=O)s2)cc1 [Example 50, 2-{[4-(carbamoylmethyl)-5-phenyl-4H-1,2,4-triazol-3-yl]sulfanyl}-N-[5-(4methoxyphenyl)-1,3,4-thiadiazol-2-yl]acetamide]
86 nM | COc1ccc(-c2nnc(NC(=O)CSc3nnc(-c4ccccc4)n3CCCO)s2)cc1 [Example 51, 2-{[4-(3-hydroxypropyl)-5-phenyl-4H-1,2,4-triazol-3-yl]sulfanyl}-N-[5-(4-methoxyphenyl)-1,3,4-thiadiazol-2-yl]acetamide]
59 nM | COc1ccc(-c2nnc(NC(=O)CSc3nnc(-c4ccccc4)n3CCO)s2)cc1 [Example 52, 2-{[4-(3-hydroxyethyl)-5-phenyl-4H-1,2,4-triazol-3-yl]sulfanyl}-N-[5-(4-methoxyphenyl)-1,3,4-thiadiazol-2-yl]acetamide]
134 nM | CCn1c(SCC(=O)Nc2nnc(-c3ccc(S(C)(=O)=O)cc3)s2)nnc1-c1ccc(F)cc1 [Example 53, 2-{[4-ethyl-5-(4-fluorophenyl)-4H-1,2,4-triazol-3-yl]sulfanyl}-N-[5-(4-methanesulfonylphenyl)-1,3,4-thiadiazol-2-yl]acetamide]
901 nM | CCn1c(SCC(=O)Nc2nnc(-c3ccc(CS(C)(=O)=O)cc3)s2)nnc1-c1ccc(F)cc1 [Example 54, 2-{[4-ethyl-5-(4-fluorophenyl)-4H-1,2,4-triazol-3-yl]sulfanyl}-N-{5-[4-(methanesulfonylmethyl)phenyl]-1,3,4-thiadiazol-2-yl}acetamide]
676 nM | CCn1c(SCC(=O)Nc2nnc(-c3ccc(SC)cc3)s2)nnc1-c1ccc(F)cc1 [Example 55, 2-{[4-ethyl-5-(4-fluorophenyl)-4H-1,2,4-triazol-3-yl]sulfanyl}-N-{5-[4-(methylsulfanyl)phenyl]-1,3,4-thiadiazol-2-yl}acetamid]
151 nM | CCn1c(SCC(=O)Nc2nnc(-c3ccc(S(C)(=O)=O)cc3)s2)nnc1-c1ccncc1 [Example 56, 2-{[4-ethyl-5-(pyridin-4-yl)-4H-1,2,4-triazol-3-yl]sulfanyl}-N-[5-(4-methanesulfonylphenyl)-1,3,4-thiadiazol-2-yl]acetamid]
133 nM | CCn1c(SCC(=O)Nc2nnc(-c3ccc(S(C)(=O)=O)cc3)s2)nnc1-c1cccnc1 [Example 57, 2-{[4-ethyl-5-(pyridin-3-yl)-4H-1,2,4-triazol-3-yl]sulfanyl}-N-[5-(4-methanesulfonylphenyl)-1,3,4-thiadiazol-2-yl]acetamide]

— patent US10011597B2 (APOGLYX AB, priority 2014, dated 2018)
